One data set can be described thus: in vitro. The class given is in vitro ADME. The note with it: rat, microsomes.
For data set [1], the system named is COX1 synthesis in mitochondria isolated from HEK293 cells. Briefly: Mitochondrial in organello translation. The class given is biochemical, human. The note with it: even up to 1 mM.
For data set [2] the following is noted: rat IV; mean (% CV); cited from earlier work.
For data set [3] the following is noted: mean (% CV); cited from earlier work.

Broadly, the amount remaining is what is left of the initial amount, in per cent. Read a low amount remaining as more turnover. Take `CN[C@@H]1[C@H](O)[C@H](NC)[C@H]2O[C@@]3(O)C(=O)C[C@@H](C)O[C@H]3O[C@@H]2[C@H]1O` [Spectinomycin, spectinomycin]: in the data set “in vitro”, the fraction remaining at 1.5 h amounted to 80.4%. Also, the “Inhibition of in organello mitochondrial translation” value in data set [1] was “did not inhibit”. For the same compound, in data set [2], the “% excreted unchanged in urine” value is listed as 55.3 (27.0)^2%, the CL is recorded as 0.60 (11.5)^2 L/h/kg, the Vd is on record as 0.76 (45.2)^2 L/kg and the t½ was 0.75 (49.3)^2 h. Further, the “Protein serum binding (Rat) % bound” value in data set [3] is 12.7 (7.5)^2%.

The values above are taken from publication PMC3972818 (Nature medicine, 2014).
